The data set is described as follows: Human HepG2 cell viability assay in 384 well format. Set-up: dose 125 nL, time 70.5 hour; concentration not given beside the values. In kind it is toxicity, cell-based. As to conditions: HepG2 cells, read-out: Inhibition.

As for `CS(=O)(=O)N[C@@H]1CCO[C@]2(CCN(C(=O)c3cscn3)C2)C1`, the cytotoxicity at 70.5 h is -7.64%.

As for `Cc1ccc(C(=O)N2C[C@@H]3OCCN(CC4CCCC4)[C@@H]3C2)cn1`, the cytotoxicity at 70.5 h was -6.94%. For the molecule `O=C(Nc1cccnc1)[C@H]1C[C@@H]2CN(Cc3ccc(F)cc3)C[C@H]1O2`, the cytotoxicity at 70.5 h was -7.11%. As for `Cc1ccc(CN2C[C@H]3C[C@H](C(=O)Nc4cccnc4)[C@@H](C2)O3)cc1`, the figure is 2.68%; as for `O=C(c1cccnc1)N1C[C@@H]2OCCN(CCN3CCCC3)[C@@H]2C1`, -10%. Regarding `CCN1Cc2c(C(=O)NC(C)C(C)C)ncn2-c2ccccc2S1(=O)=O` (stereo not drawn), the cytotoxicity at 70.5 h came out at 6.35%.

Take `CN1CCN(Cc2cnc3n2CCN(C(=O)c2ccncc2)C3)CC1`: the cytotoxicity at 70.5 h was -10.3%. Turning to `CCCS(=O)(=O)N1CC[C@H]2O[C@H](c3nnc(C)o3)CC[C@H]21`, the cytotoxicity at 70.5 h is 11.3%. With `CCS(=O)(=O)N1CC[C@H]2O[C@H](c3nnc(C)o3)CC[C@H]21`, the cytotoxicity at 70.5 h is -13.4%. As for `CNC(=O)c1ncn2c1CN(CCC(C)C)S(=O)(=O)c1ccccc1-2`, the figure is -9.5%; as for `CN1CCN(Cc2cnc3n2CCN(C(=O)c2ccccn2)C3)CC1`, -12.3%; as for `COCC(=O)N1CC[C@@H]2O[C@H](COCc3csc(C)n3)CC[C@@H]21`, -4.59%.

Take `CN1CCN(Cc2cnc3n2CCN(C(=O)c2ccoc2)C3)CC1`: the cytotoxicity at 70.5 h was -7.31%. With `CN1CCN(Cc2cnc3n2CCN(C(=O)c2ccnnc2)C3)CC1`, the cytotoxicity at 70.5 h is -14.6%. In the case of `CN1CCN(Cc2cnc3n2CCN(C(=O)c2cnccn2)C3)CC1` it was -4.26%; in that of `CCS(=O)(=O)N1CC[C@H]2O[C@@H](c3nnc(C)o3)CC[C@H]21`, -8.41%; in that of `CCOCC1CN(S(=O)(=O)C2CC2)Cc2cnn(C)c21` (stereo not drawn), 20%.

As to `Cc1ccc(C(=O)N2CC[C@@]3(O)CCN(C(=O)N(C)C)C[C@H]3C2)cc1Cl`, the cytotoxicity at 70.5 h was -8.07%. As for `CCCc1cc(C(=O)N2Cc3cnc(C(C)(C)C)nc3C2)ccn1`, the figure is 0.0745%. Regarding `CNc1ncccc1CN1CCN(c2cc(NC3CC3)nc(N)n2)CC1`, the cytotoxicity at 70.5 h was 0.197%.

On to `COc1ccccc1Oc1ncccc1CNC(=O)CN1CCCC1=O`, for which the cytotoxicity at 70.5 h was -4.31%. Consider `OCc1ccc(-c2nccn2CCc2nc3c(s2)CCCC3)o1`, for which the cytotoxicity at 70.5 h stood at 9.89%. As for `CCCc1nnc(N2CCC(N3CCCCCC3)CC2)o1`, the cytotoxicity at 70.5 h was -15.8%. As for `CC(C)Oc1cc(N2CCCC(O)C2)nc(N)n1` (stereo not drawn), the figure is 7.95%; as for `O=C1NC2(CCN(CCc3ccccc3)CC2)CC1c1ccccc1` (stereo not drawn), -8.33%; as for `CCCc1nnc(N(C)CC2CCN(CC(C)C)CC2)o1`, -7.76%. As to `COc1ccc(C(=O)NC2CC2)c(OC2CCN(C3CCC3)CC2)c1`, the cytotoxicity at 70.5 h was -3.47%. Take `Cc1nccc(N[C@H]2CN(C(=O)C3(C#N)CCOCC3)C[C@@H]2C(C)C)n1`: the cytotoxicity at 70.5 h turned out to be 12%.

In the case of `COc1ccc(CCC2CCCN(CC(=O)O)C2)cc1` (stereo not drawn), the cytotoxicity at 70.5 h is -6.84%. In the case of `CC1CN(CC(=O)NCCc2ccncc2)Cc2ccccc2O1` (stereo not drawn) it was -7.7%. For the molecule `CC(=O)N1C[C@@H]2CC[C@H](C1)N(S(=O)(=O)c1cc(F)ccc1C)C2`, the cytotoxicity at 70.5 h is -10.6%. `CC[C@@]1(O)CCN(C(=O)CCNC(=O)c2ccc(F)cc2)C[C@H]1O`: the cytotoxicity at 70.5 h was -5.99%. Regarding `Cc1ccc2[nH]c(CN(C)Cc3ccccc3C(=O)O)nc2c1`, the cytotoxicity at 70.5 h is -7.29%. In the case of `Nc1nc(NCCc2[nH]nc3c2CCCC3)cc(N2CCOCC2)n1` it was -6.18%; in that of `CC(C)[C@@H]1CN(c2ccc(C(F)(F)F)cn2)C[C@H]1NS(C)(=O)=O`, 21.5%; in that of `CCN1CCC(N2C[C@H]3OC(=O)N(CCc4cccc(Cl)c4)[C@H]3C2)CC1`, -0.155%. `c1cc(-c2cncnc2)cc(-c2ccn(CC3CCNC3)n2)c1` (stereo not drawn): the cytotoxicity at 70.5 h was -15.7%. As for `CC/C(C)=C/CCN1CCN(C)C2(CCNC(=O)CC2)C1` (stereo not drawn), the figure is -6.34%. In the case of `c1ccc(-c2cc(CN3C[C@H]4CC[C@H]3C4)on2)cc1` it was -4.67%.

As to `CSc1ccc(-c2nc(CN3CCCC(CNC(C)=O)C3)c(C)o2)cc1` (stereo not drawn), the cytotoxicity at 70.5 h is -3.75%.

In the case of `Cc1ccn2c(F)c(C(=O)N3CCC4(CCCN(C)C4=O)C3)nc2c1` (stereo not drawn), the cytotoxicity at 70.5 h was -8.44%. In the case of `CCOc1ccc(CCCC(=O)N2CCC(C(=O)NC)C2)cc1C` (stereo not drawn) it was -8.84%; in that of `Cc1cc(C)cc(CN2CCN(C(=O)COCC3CCCO3)CC2=O)c1` (stereo not drawn), -5.03%. As for `Cn1nnnc1SCCNC(=O)C1CCN(C(=O)C2CC2)CC1`, the figure is 24.5%; as for `CC(NC(=O)c1cn(CCC2CCCCC2)nn1)c1cnn(C)c1` (stereo not drawn), 20.4%; as for `COc1cc(Cc2nc3c([nH]2)CC(C)(C)CNC3=O)cc(OC)c1`, 8.47%. On to `CC(C(=O)N1CCn2cncc2C1)N1C[C@@H](C)O[C@@H](C)C1` (stereo partly drawn), for which the cytotoxicity at 70.5 h was determined as 0.983%. `Cc1cc(C(=O)NCc2cccnc2N2CCCC(O)C2)[nH]n1` (stereo not drawn): the cytotoxicity at 70.5 h was -16.1%. In the case of `O=C(CSc1ccccc1)N1C[C@H]2CC[C@@H]1CN(Cc1ccncc1)C2` it was -4.9%; in that of `CCSc1ncc(CN(Cc2cnn(C)c2)CC(C)C)cn1`, -4.66%; in that of `Cc1cc(C(F)(F)F)cc(N2C[C@@H](CN(C)CCO)[C@@H](CO)C2)n1`, 2.18%.

As for `COC(=O)c1cc(C)nc(N2CCN(Cc3ccn(C(C)C)c3)CC2)n1`, the cytotoxicity at 70.5 h was -18.7%. In the case of `Cc1ocnc1C(=O)N1CCN(CCOc2ccccc2)CC1` it was -10.4%.

For the molecule `Cc1ccccc1[C@@H]1CN(Cc2nc3ncccn3n2)C[C@H]1C(=O)O`, the cytotoxicity at 70.5 h amounted to 3.89%.

With `CN(C)S(=O)(=O)N1C[C@@H]2CC[C@H](C1)N(Cc1ccc(F)c(F)c1)C2`, the cytotoxicity at 70.5 h turned out to be 4.72%. Regarding `CCN(Cc1nccn1C)C(=O)c1ccc(NCC(C)C)nc1`, the cytotoxicity at 70.5 h was -6.64%. Regarding `CC(C)c1nnc2sc(CC3CN(C(C)C)CCO3)nn12` (stereo not drawn), the cytotoxicity at 70.5 h was -7.69%. As for `COc1ccc(F)cc1CN1CCCn2nc(CNS(C)(=O)=O)cc2C1`, the figure is -5.04%; as for `Cc1noc(C)c1CNC(=O)c1cn(CCC2CCCCN2)nn1` (stereo not drawn), -0.767%. In the case of `COC(=O)CNC(=O)C1(N(C)Cc2ccccc2)Cc2ccccc2C1`, the cytotoxicity at 70.5 h was -8.63%. As for `COc1cccc(CN2CCC(O)(c3ccc(C)cn3)CC2)c1OC`, the figure is 4.46%; as for `COc1cc(F)ccc1-c1cnc(N)cn1`, -13.6%.

For the molecule `CCn1c(CN(C)C)nnc1C1CCN(Cc2ccncc2)CC1`, the cytotoxicity at 70.5 h was -6.3%. As for `O=C(NCCc1cccs1)C1(N2CCCCC2)Cc2ccccc2C1`, the figure is -7.46%; as for `Nc1nc2c(c(NCC(c3cccnc3)N3CCOCC3)n1)CCNC2` (stereo not drawn), -10.5%; as for `CCn1nc(C)c(CN2CCC(c3ccc(C(=O)O)cc3)C2)c1C` (stereo not drawn), -2.74%. `Cc1c(CNCC(C)Oc2cccnc2)c2ccccc2n1CC(N)=O` (stereo not drawn): the cytotoxicity at 70.5 h worked out at 2.14%. In the case of `Cc1nc(Cn2c(=O)cnc3ccccc32)n(C)n1` it was -24.2%; in that of `Cn1c(Cn2ccnc2)nnc1C1CCN(C(=O)c2ccncc2)CC1`, -5.75%; in that of `Cc1nc(CCN)cc(N2CCC(O)(c3ccccc3)C2)n1` (stereo not drawn), -4.16%. In the case of `CC(C)=CCCN1CCN(C)C2(CCC(=O)N(C)CC2)C1` (stereo not drawn), the cytotoxicity at 70.5 h is -6.95%. As for `Cc1ccc(C)c(CN2CCCn3nc(CNS(C)(=O)=O)cc3C2)c1`, the figure is 15.4%; as for `CCN1CC(C(=O)NCc2cccc(SC)c2)CC1=O` (stereo not drawn), 18%.

Consider `CCCn1cc(NC(=O)c2cccc(CN3CC=CC3)c2)nn1`, for which the cytotoxicity at 70.5 h was 45.4%. As to `CN1C(=O)C2(CCCN(C(=O)c3cccnc3O)C2)c2ccccc21` (stereo not drawn), the cytotoxicity at 70.5 h turned out to be 21%.

On to `CC(C)c1noc(Cn2ncc3ccccc3c2=O)n1`, for which the cytotoxicity at 70.5 h was -7.17%.

On to `Cc1ccc(CN2CCN(C(=O)CCc3nc(Cl)n[nH]3)CC2=O)cc1`, for which the cytotoxicity at 70.5 h was -14.2%. Regarding `CNC(=O)N1C[C@H]2C[C@H](C(=O)Nc3cccnc3)[C@@H](C1)O2`, the cytotoxicity at 70.5 h was -2.82%. In the case of `O=C([C@H]1C[C@H]2OCC[C@H]2N(CC2CC2)C1)N1CCCCO1` it was -4.54%; in that of `O=C([C@H]1C[C@H]2OCC[C@H]2N(Cc2ccccn2)C1)N1CCCCO1`, -9.44%; in that of `O=C([C@H]1C[C@H]2OCC[C@H]2N(Cc2ccoc2)C1)N1CCCCO1`, -6.32%.

On to `COCCN1CC[C@@H]2O[C@H](COCc3csc(C)n3)CC[C@@H]21`, for which the cytotoxicity at 70.5 h was -15.2%. As for `CC1=N[C@@]2(CC[C@@H]3CN(CC4CC4)C[C@@H]32)C(=O)N1CC(C)C`, the figure is -15.3%. In the case of `Cc1noc([C@@H]2C[C@H]3CN(C(=O)C4CCN(C)CC4)C[C@H]3O2)n1` it was -11.3%. Turning to `O=S(=O)(c1cccs1)N1CC[C@@H](O)[C@@H]1Cc1ccncc1`, the cytotoxicity at 70.5 h was determined as 18%. Consider `OCCOCc1ncn2c1CN(Cc1cccs1)CCC2`, for which the cytotoxicity at 70.5 h is 0.851%. In the case of `O=C([C@H]1C[C@H]2OCC[C@H]2N(Cc2cccnc2)C1)N1CCCCO1` it was -7.65%. On to `Cn1cc(C[C@H]2[C@H](O)CCN2Cc2ccncc2)cn1`, for which the cytotoxicity at 70.5 h is -5.7%.

Take `Cc1ncsc1CN1Cc2cn(C)nc2C(COCC2CC2)C1` (stereo not drawn): the cytotoxicity at 70.5 h was 11.6%. In the case of `CO[C@@H]1CCN(Cc2nccn2C)[C@H]1Cc1cccnc1` it was 12.4%. Regarding `Cn1cc(CN2CCCC3(CCN(C(=O)c4cnccn4)C3)C2)cn1` (stereo not drawn), the cytotoxicity at 70.5 h was 11.1%.

In the case of `Cc1ccc(CN2CCC3(CC2)CC(N2CCN(C)CC2)CO3)s1` (stereo not drawn), the cytotoxicity at 70.5 h was -9.14%.

Turning to `COCC1CN(Cc2ccccn2)Cc2cn(C)nc21` (stereo not drawn), the cytotoxicity at 70.5 h was -4.86%.

The values are drawn from ChEMBL document CHEMBL3507680, “University of Dundee, Gates Library screen for HepG2 cell viability”.
